The source of these data is patent US12679878B2, “CRF2 receptor agonists and their use in therapy” (SANOFI, priority 2020, dated 2026).

Where two headings read alike, the source gives them in different places. Starred links: 1 amine or outer side, 2 acyl side, 3 side chain; linkers in the order of their positions; H or OH if unused. Non-standard residues stand in square brackets, D forms with d. Residues, ends and D or L forms follow the SMILES beside them. Groups on a side chain read outwards from the residue. *: point of attachment. C20 diacid = O=C(O)CCCCCCCCCCCCCCCCCCC(=O)*; C18 diacid = O=C(O)CCCCCCCCCCCCCCCCC(=O)*; γGlu = O=C(O)[C@H](CCC(=O)[*:2])N[*:1]; AEEA = NCCOCCOCC(=O)O; Aib = CC(C)(N)C(=O)O

As a reminder, the EC50 is the concentration at which the effect is half-maximal.

In this assay the target is T1, human CRF2α receptor (Homo sapiens, UniProt Q13324).
T1 construct: expressed in transfected cells; host or cells: TeloHEAC
T1 sequence (Q13324 1-411): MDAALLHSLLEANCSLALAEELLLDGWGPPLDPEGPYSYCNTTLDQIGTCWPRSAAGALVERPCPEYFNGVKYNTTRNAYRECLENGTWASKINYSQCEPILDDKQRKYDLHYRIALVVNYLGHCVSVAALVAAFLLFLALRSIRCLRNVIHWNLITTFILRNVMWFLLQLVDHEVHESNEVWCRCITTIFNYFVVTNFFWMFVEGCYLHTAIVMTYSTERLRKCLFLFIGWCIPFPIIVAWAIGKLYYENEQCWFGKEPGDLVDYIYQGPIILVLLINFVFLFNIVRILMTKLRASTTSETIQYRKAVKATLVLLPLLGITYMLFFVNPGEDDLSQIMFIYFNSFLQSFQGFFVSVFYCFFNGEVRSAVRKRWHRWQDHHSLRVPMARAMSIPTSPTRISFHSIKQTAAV
As to the kind of experiment: cAMP agonism at human CRF2 α receptor in TeloHEAC cells (Example 7). The note with it: cAMP HTRF, TeloHEAC cells stably expressing human CRF2 α. Type of assay: cell-based. The method in brief:
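Steps: thaw and wash cells; suspend in 1×HBSS, 20 mM HEPES, 0 or 0.1% HSA, 2 mM IBMX; add compound, 30 min RT; lyse with HTRF reagents, 1 h; read 665/620 nm. EC50 calculated, E% versus 1000 nM UCN2.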
Background: In TR-FRET formats the signal depends on donor and acceptor labels being close together.

Where [1] appears, read: 0% HSA, read-out: EC50 [nM], 0% HSA.
[2] abbreviates: 0.1% HSA, read-out: EC50 [nM], 0.1% HSA.

Take `CC[C@H](C)[C@H](N)C(=O)N[C@H](C(=O)N[C@@H](CC(C)C)C(=O)N[C@@H](CO)C(=O)N[C@@H](CC(C)C)C(=O)N[C@@H](CC(=O)O)C(=O)N[C@@H](C(=O)N1CCC[C@H]1C(=O)N[C@H](C(=O)N[C@@H](CCCCN)C(=O)N[C@@H](CC(C)C)C(=O)N[C@@H](CCCCNC(=O)COCCOCCNC(=O)COCCOCCNC(=O)CC[C@H](NC(=O)CC[C@H](NC(=O)CCCCCCCCCCCCCCCCCCC(=O)O)C(=O)O)C(=O)O)C(=O)N[C@@H](CCC(N)=O)C(=O)N[C@H](C(=O)N[C@@H](CC(C)C)C(=O)N[C@@H](CC(C)C)C(=O)N[C@@H](CCCCN)C(=O)N[C@@H](CCC(N)=O)C(=O)N[C@@H](CCC(=O)O)C(=O)N[C@@H](CCCNC(=N)N)C(=O)N[C@@H](CCC(N)=O)C(=O)N[C@@H](CCCCN)C(=O)N[C@@H](CCCCN)C(=O)N[C@@H](CCC(N)=O)C(=O)N[C@@H](CCCNC(=N)N)C(=O)N[C@@H](CCC(N)=O)C(=O)N[C@@H](CCC(N)=O)C(=O)N[C@@H](C)C(=O)N[C@@H](CCC(=O)O)C(=O)N[C@@H](CCCCN)C(=O)N[C@@H](CC(N)=O)C(=O)N[C@@H](CCCCN)C(=O)N[C@@H](CCC(N)=O)C(=O)N[C@H](C(=O)N[C@@H](CC(C)C)C(=O)N[C@@H](C)C(=O)N[C@@H](CCC(N)=O)C(=O)N[C@H](C(N)=O)C(C)C)[C@@H](C)CC)[C@@H](C)CC)[C@@H](C)CC)C(C)C)C(C)C` [compound 177] (H-IVLSLD[dV]PIKLK([AEEA-AEEA-γGlu-γGlu-C20 diacid])QILLKQERQKKQRQQAEKNKQILAQV-NH2): the EC50 is 0.07 nM under setting [1] and 5.19 nM under setting [2].

With `CC[C@H](C)[C@H](N)C(=O)N[C@H](C(=O)N[C@@H](CC(C)C)C(=O)N[C@@H](CO)C(=O)N[C@@H](CC(C)C)C(=O)N[C@@H](CC(=O)O)C(=O)N[C@@H](C(=O)N1CCC[C@H]1C(=O)N[C@H](C(=O)N[C@@H](CCCCN)C(=O)N[C@@H](CC(C)C)C(=O)N[C@@H](CCCCNC(=O)COCCOCCNC(=O)COCCOCCNC(=O)CC[C@H](NC(=O)CCCCCCCCCCCCCCCCCCC(=O)O)C(=O)O)C(=O)N[C@@H](CCC(N)=O)C(=O)N[C@H](C(=O)N[C@@H](CC(C)C)C(=O)N[C@@H](CC(C)C)C(=O)N[C@@H](CCCCN)C(=O)N[C@@H](CCC(N)=O)C(=O)N[C@@H](CCC(=O)O)C(=O)N[C@@H](CCCNC(=N)N)C(=O)N[C@@H](CCC(N)=O)C(=O)N[C@@H](CCCCN)C(=O)N[C@@H](CCCCN)C(=O)N[C@@H](CCC(N)=O)C(=O)N[C@@H](CCCNC(=N)N)C(=O)N[C@@H](CCC(N)=O)C(=O)N[C@@H](CCC(N)=O)C(=O)N[C@@H](C)C(=O)N[C@@H](CCC(=O)O)C(=O)N[C@@H](CCCCN)C(=O)N[C@@H](CC(N)=O)C(=O)N[C@@H](CCCCN)C(=O)N[C@@H](CCC(N)=O)C(=O)N[C@H](C(=O)N[C@@H](CC(C)C)C(=O)N[C@@H](C)C(=O)N[C@@H](CCC(N)=O)C(=O)N[C@H](C(N)=O)C(C)C)[C@@H](C)CC)[C@@H](C)CC)[C@@H](C)CC)C(C)C)C(C)C` [compound 178] (H-IVLSLD[dV]PIKLK([AEEA-AEEA-γGlu-C20 diacid])QILLKQERQKKQRQQAEKNKQILAQV-NH2; N-terminus assumed), the EC50 is, setting by setting: under setting [1], 0.04 nM; under setting [2], 3.77 nM.

In the case of `CC[C@H](C)[C@H](N)C(=O)N[C@H](C(=O)N[C@@H](CC(C)C)C(=O)N[C@@H](CO)C(=O)N[C@@H](CC(C)C)C(=O)N[C@@H](CC(=O)O)C(=O)N[C@@H](C(=O)N1CCC[C@H]1C(=O)N[C@H](C(=O)N[C@@H](CCCCN)C(=O)N[C@@H](CC(C)C)C(=O)N[C@@H](CCCCNC(=O)CC[C@H](NC(=O)CCCCCCCCCCCCCCCCC(=O)O)C(=O)O)C(=O)N[C@@H](CCC(N)=O)C(=O)N[C@H](C(=O)N[C@@H](CC(C)C)C(=O)N[C@@H](CC(C)C)C(=O)N[C@@H](CCCCN)C(=O)N[C@@H](CCC(N)=O)C(=O)N[C@@H](CCC(=O)O)C(=O)N[C@@H](CCCNC(=N)N)C(=O)N[C@@H](CCC(N)=O)C(=O)N[C@@H](CCCCN)C(=O)NC(C)(C)C(=O)N[C@@H](CCC(N)=O)C(=O)N[C@@H](CCCNC(=N)N)C(=O)N[C@@H](CCC(=O)O)C(=O)N[C@@H](CCC(N)=O)C(=O)N[C@@H](C)C(=O)N[C@@H](CCC(=O)O)C(=O)N[C@@H](CCCCN)C(=O)N[C@@H](CC(N)=O)C(=O)N[C@@H](CCCCN)C(=O)N[C@@H](CCC(N)=O)C(=O)N[C@H](C(=O)N[C@@H](CC(C)C)C(=O)N[C@@H](C)C(=O)N[C@@H](CCC(N)=O)C(=O)N[C@H](C(N)=O)C(C)C)[C@@H](C)CC)[C@@H](C)CC)[C@@H](C)CC)C(C)C)C(C)C` [compound 179] (H-IVLSLD[dV]PIKLK([γGlu-C18 diacid])QILLKQERQK[Aib]QREQAEKNKQILAQV-NH2; N-terminus assumed), the EC50 under setting [1] was found to be 0.03 nM and the EC50 under setting [2] stood at 1.88 nM.

Consider `CC[C@H](C)[C@H](N)C(=O)N[C@H](C(=O)N[C@@H](CC(C)C)C(=O)N[C@@H](CO)C(=O)N[C@@H](CC(C)C)C(=O)N[C@@H](CC(=O)O)C(=O)N[C@@H](C(=O)N1CCC[C@H]1C(=O)N[C@H](C(=O)N[C@@H](CCCCN)C(=O)N[C@@H](CC(C)C)C(=O)N[C@@H](CCCCNC(=O)CC[C@H](NC(=O)CCCCCCCCCCCCCCCCC(=O)O)C(=O)O)C(=O)N[C@@H](CCC(N)=O)C(=O)N[C@H](C(=O)N[C@@H](CC(C)C)C(=O)N[C@@H](CC(C)C)C(=O)N[C@@H](CCCCN)C(=O)N[C@@H](CCC(N)=O)C(=O)N[C@@H](C)C(=O)N[C@@H](CCCNC(=N)N)C(=O)N[C@@H](CCC(N)=O)C(=O)N[C@@H](CCCCN)C(=O)NC(C)(C)C(=O)N[C@@H](CCC(N)=O)C(=O)N[C@@H](CCCNC(=N)N)C(=O)N[C@@H](C)C(=O)N[C@@H](CCC(N)=O)C(=O)N[C@@H](C)C(=O)N[C@@H](CCC(=O)O)C(=O)N[C@@H](CCCCN)C(=O)N[C@@H](CC(N)=O)C(=O)N[C@@H](CCCCN)C(=O)N[C@@H](CCCNC(=N)N)C(=O)N[C@H](C(=O)N[C@@H](CC(C)C)C(=O)N[C@@H](CCC(=O)O)C(=O)N[C@@H](CCCNC(=N)N)C(=O)N[C@H](C(N)=O)C(C)C)[C@@H](C)CC)[C@@H](C)CC)[C@@H](C)CC)C(C)C)C(C)C` [compound 180] (H-IVLSLD[dV]PIKLK([γGlu-C18 diacid])QILLKQARQK[Aib]QRAQAEKNKRILERV-NH2; N-terminus assumed), for which the EC50 under setting [1] was found to be 0.05 nM and the EC50 under setting [2] was 1.74 nM.

On to `CC[C@H](C)[C@H](N)C(=O)N[C@H](C(=O)N[C@@H](CC(C)C)C(=O)N[C@@H](CO)C(=O)N[C@@H](CC(C)C)C(=O)N[C@@H](CC(=O)O)C(=O)N[C@@H](C(=O)N1CCC[C@H]1C(=O)N[C@H](C(=O)N[C@@H](CCCCN)C(=O)N[C@@H](CC(C)C)C(=O)N[C@@H](CCCCNC(=O)CC[C@H](NC(=O)CCCCCCCCCCCCCCCCC(=O)O)C(=O)O)C(=O)N[C@@H](CCC(N)=O)C(=O)N[C@H](C(=O)N[C@@H](CC(C)C)C(=O)N[C@@H](CC(C)C)C(=O)N[C@@H](CCCCN)C(=O)N[C@@H](CCC(N)=O)C(=O)N[C@@H](CCC(=O)O)C(=O)N[C@@H](CCCNC(=N)N)C(=O)N[C@@H](CCC(N)=O)C(=O)N[C@@H](CCCCN)C(=O)N[C@@H](CCCCN)C(=O)N[C@@H](CCC(N)=O)C(=O)N[C@@H](CCCNC(=N)N)C(=O)N[C@@H](CCC(N)=O)C(=O)N[C@@H](CCC(N)=O)C(=O)N[C@@H](C)C(=O)N[C@@H](CCC(=O)O)C(=O)N[C@@H](CCCCN)C(=O)N[C@@H](CC(N)=O)C(=O)N[C@@H](CCCCN)C(=O)N[C@@H](CCC(N)=O)C(=O)N[C@H](C(=O)N[C@@H](CC(C)C)C(=O)N[C@@H](C)C(=O)N[C@@H](CCC(N)=O)C(=O)N[C@H](C(N)=O)C(C)C)[C@@H](C)CC)[C@@H](C)CC)[C@@H](C)CC)C(C)C)C(C)C` [compound 181] (H-IVLSLD[dV]PIKLK([γGlu-C18 diacid])QILLKQERQKKQRQQAEKNKQILAQV-NH2; N-terminus assumed), for which the EC50 is, setting by setting: under setting [1], 1.18 nM; under setting [2], 15.3 nM.
